Data published in BindingDB's records for doi:10.1021/jm950807f (University of Minnesota, 1996).

Assay: Binding affinity against Delta Opioid receptor in Guinea pig brain membranes

## NC1=NC([C@]2(N)CC[C@@]3(O)[C@H]4Cc5ccc(O)c6c5C3(CCN4CC3CC3)[C@H]2O6)=N[C@]12CC[C@@]1(O)[C@H]3Cc4ccc(O)c5c4C1(CCN3CC1CC1)[C@H]2O5 [5-amino-2,4(Bis-4-cyclopropylmethyl-10,17-dihydroxy-(1S,5R,13R,17S)-12-oxa-4-azapentacyclo[9.6.1.01,13.05,17.07,18]octadeca-7(18),8,10-trien-14-one) imidazole]
  Ki: 183 nM

## N[C@@]1(C2=N[C@]3(CC[C@@]4(O)[C@H]5Cc6ccc(O)c7c6C4(CCN5CC4CC4)[C@H]3O7)C(=O)N2)CC[C@@]2(O)[C@H]3Cc4ccc(O)c5c4C2(CCN3CC2CC2)[C@H]1O5 [(4S,5'R,13'R,17'S)-2-[(5R,13R,14R,17S)-14-amino-4-(cyclopropylmethyl)-10,17-dihydroxy-12-oxa-4-azapentacyclo[9.6.1.0^{1,13}.0^{5,17}.0^{7,18}]octadeca-7(18),8,10-trien-14-yl]-4'-(cyclopropylmethyl)-10',17'-dihydroxy-3,5-dihydro-12'-oxa-4'-azaspiro[imidazole-4,14'-pentacyclo[9.6.1.0^{1,13}.0^{5,17}.0^{7,18}]octadecane]-7',9',11'(18')-trien-5-one]
  Ki: 1.24 nM
